In article PMC5196434, “Proximity does not contribute to activity enhancement in the glucose oxidase–horseradish peroxidase cascade” (Nature Communications, 2016):

Target: T1, glucose oxidase (GOx) (Aspergillus niger, UniProt P13006)
T1 construct: commercial type VII preparation (Sigma Aldrich), free enzyme
Experiment: HRP-coupled ABTS colorimetric assay, absorbance at […] nm
Format: biochemical
Conditions: co-substrate oxygen; 20 nM HRP, 2 mM ABTS; PBS pH 7.4; 23 °C; read-out: Michaelis-Menten kinetics (Km)

T1 sequence (P13006 23-605): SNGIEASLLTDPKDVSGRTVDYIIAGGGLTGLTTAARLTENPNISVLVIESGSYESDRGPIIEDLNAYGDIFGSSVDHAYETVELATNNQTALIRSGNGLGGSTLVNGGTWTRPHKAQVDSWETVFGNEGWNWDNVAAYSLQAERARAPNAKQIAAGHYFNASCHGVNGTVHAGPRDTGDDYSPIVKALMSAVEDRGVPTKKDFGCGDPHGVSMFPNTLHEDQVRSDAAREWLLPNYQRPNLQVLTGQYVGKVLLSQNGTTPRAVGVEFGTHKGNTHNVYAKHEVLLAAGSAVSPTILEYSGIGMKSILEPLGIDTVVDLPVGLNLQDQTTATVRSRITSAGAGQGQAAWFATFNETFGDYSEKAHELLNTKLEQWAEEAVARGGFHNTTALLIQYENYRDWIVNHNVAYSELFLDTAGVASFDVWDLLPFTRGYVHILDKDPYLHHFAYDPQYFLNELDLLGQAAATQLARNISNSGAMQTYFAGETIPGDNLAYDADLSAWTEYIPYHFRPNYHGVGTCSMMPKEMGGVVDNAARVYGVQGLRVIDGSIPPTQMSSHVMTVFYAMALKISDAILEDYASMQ

Q: For D-glucose, which Km is on record?
A: The Km was 15 mM.
